Values quoted from earlier work, collected in PMC4108727 (Angewandte Chemie (International ed. in English), 2013).

Target: MTH1 (Homo sapiens, UniProt P36639)
Settings: substrate of MTH1; cited from earlier work

| Structure (SMILES) | Km [µM] |
| --- | --- |
| Nc1nc2c([nH]c(=O)n2[C@H]2C[C@H](O)[C@@H](COP(=O)(O)OP(=O)(O)OP(=O)(O)O)O2)c(=O)[nH]1 [8-oxo-dGTP] | 15.2 |
| Nc1ncnc2c1[nH]c(=O)n2[C@H]1C[C@H](O)[C@@H](COP(=O)(O)OP(=O)(O)OP(=O)(O)O)O1 [8-oxo-dATP] | 13.9 |
